# Laboratory results reported in PubChem BioAssay AID652001 (The Scripps Research Institute Molecular Screening Center, 2013).
# Assays:
# [1] = target: Acyl-protein thioesterase 2 (Homo sapiens) (UniProt O95372); experiment: LYPLA2 enzyme kinetics with inhibitors – biochemical, substrate-based fluorescence, Ki, Km, Vmax, late-stage follow-up (AID 652001); conditions: recombinant LYPLA2, resorufin acetate hydrolysis fluorescence
# LYPLA2 = experiment: as above; conditions: recombinant LYPLA2, resorufin acetate hydrolysis fluorescence, Ki from Cheng-Prusoff
# Acyl-protein thioesterase 2 (Homo sapiens), sequence (O95372 whole entry, looked up): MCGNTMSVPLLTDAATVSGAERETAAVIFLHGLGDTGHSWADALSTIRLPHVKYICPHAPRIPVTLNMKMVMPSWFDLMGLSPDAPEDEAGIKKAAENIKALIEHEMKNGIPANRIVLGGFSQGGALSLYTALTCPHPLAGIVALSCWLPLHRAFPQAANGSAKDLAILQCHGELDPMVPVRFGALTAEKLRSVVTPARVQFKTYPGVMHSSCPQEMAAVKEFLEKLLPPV
compound,measurement,setting,value
COc1ccc(N2CCN(C(=O)c3cc4c(s3)-c3ccccc3S(=O)(=O)C4)CC2)cc1,IC50,[1],510 nM
same,Ki,LYPLA2,230 nM
